Experimental data as given in ChEMBL document CHEMBL5604063, “ASAP - DENV-2 NS2B-NS3 protease fluorescence dose response” (2024).
Values joined by “and” are separate entries in the source; they are usually repeats but may differ in a detail not shown here. Equal entries are not always repeated.

How the values were obtained:
Genome polyprotein [1] = biological target: T1, Genome polyprotein (dengue virus type 2, UniProt P29990); type: functional, Thailand/16681/1984
Genome polyprotein [2] = biological target: T1, Genome polyprotein; type: functional, Thailand/16681/1984; remark: listed apart in the source

T1 sequence (P29990 1346-1475 limits assumed): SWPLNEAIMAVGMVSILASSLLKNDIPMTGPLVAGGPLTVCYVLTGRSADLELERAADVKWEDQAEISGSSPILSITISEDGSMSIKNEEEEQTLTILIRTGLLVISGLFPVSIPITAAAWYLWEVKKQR
T1 sequence (P29990 1476-2093 limits assumed): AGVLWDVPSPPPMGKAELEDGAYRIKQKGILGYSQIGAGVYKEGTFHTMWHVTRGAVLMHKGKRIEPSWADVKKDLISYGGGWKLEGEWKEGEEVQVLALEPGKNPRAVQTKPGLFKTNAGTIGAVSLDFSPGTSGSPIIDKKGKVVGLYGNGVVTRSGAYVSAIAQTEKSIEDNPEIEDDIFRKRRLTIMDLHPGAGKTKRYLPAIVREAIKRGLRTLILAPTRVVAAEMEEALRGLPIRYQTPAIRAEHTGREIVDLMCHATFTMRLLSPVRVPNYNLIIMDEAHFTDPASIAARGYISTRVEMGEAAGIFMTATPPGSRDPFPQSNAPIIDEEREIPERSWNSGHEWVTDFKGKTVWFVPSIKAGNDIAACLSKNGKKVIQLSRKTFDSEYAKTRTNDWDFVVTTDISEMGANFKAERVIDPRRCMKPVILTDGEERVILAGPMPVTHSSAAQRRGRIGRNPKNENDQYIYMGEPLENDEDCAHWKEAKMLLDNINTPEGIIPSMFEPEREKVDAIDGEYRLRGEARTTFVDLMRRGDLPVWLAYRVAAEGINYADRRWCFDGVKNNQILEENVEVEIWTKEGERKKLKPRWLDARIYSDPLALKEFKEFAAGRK

Row | Structure (SMILES) | IC50 (Genome polyprotein [1]) | IC50 (Genome polyprotein [2])
1 | NCc1cccc(NC(=O)c2cc(C3CC3)nc3ccc(Cl)cc23)c1 | > 99.5 µM | > 100 µM
2 | O=C(Nc1cc(Cl)cc(C(=O)Nc2ccnc([C@H]3CCCN3)n2)c1)OCc1ccccc1 | > 99.5 µM | > 100 µM
3 | NCc1cccc([C@H]2C[C@@H]2c2cc(Cl)cc(NC(=O)OCc3ccccc3)c2)c1 | 41 µM and 25.9 µM and 30 µM | > 100 µM
4 | Cc1cc(CN)cc(C)c1NS(=O)(=O)c1ccc(Oc2ccccc2Cl)cc1 | > 99.5 µM | > 100 µM
5 | NC1(c2cccc(NS(=O)(=O)c3ccc(Oc4ccccc4Cl)cc3)c2)CCOCC1 | > 99.5 µM | > 100 µM
6 | CCc1c(C(=O)Nc2cccc(CN)c2)c2cc(Cl)ccc2n1C | > 99.5 µM | > 100 µM
7 | O=c1ccc(N2CCN(Cc3c[nH]c4ccccc34)CC2)c[nH]1 | > 99.5 µM | > 100 µM
8 | COc1cn(-c2cccc(C(F)(F)F)c2)nc1C(=O)Nc1cccc(CN)c1 | > 99.5 µM | > 100 µM
9 | CCOc1cccc(-c2ccc(S(=O)(=O)Nc3ccc(Cl)cc3C(=O)O)cc2C)c1 | 7.15 µM | 7.34 µM
10 | NC1CN(c2ccc(NS(=O)(=O)c3ccc(Oc4ccccc4Cl)cc3)cn2)C1 | > 99.5 µM | > 100 µM
11 | NCc1cccc(NC(=O)[C@H](NC(=O)OCc2ccccc2)c2cccc(-c3ccnc(N)c3)c2)c1 | > 99.5 µM | > 100 µM
12 | Cc1cc(C(=O)Nc2cccc(CN)c2)n2nc(C(F)(F)F)cc2n1 | 86.7 µM | > 100 µM
13 | CC(C)(C)OC(=O)NCc1cccc(NC(=O)C[C@H](N)c2ccc(OCc3ccccc3)c(Br)c2)c1 | > 99.5 µM | > 100 µM
14 | N[C@H]1CCCc2ccc(NC(=O)c3cc(Cl)cc(NC(=O)OCc4ccccc4)c3)cc21 | > 99.5 µM | > 100 µM
15 | NC1(c2cccc(NC(=O)c3cc(Cl)cc(NC(=O)OCc4ccccc4)c3)c2)CCOCC1 | > 99.5 µM | > 100 µM
16 | Cc1ccc(OCc2ccccc2Cl)c(C(=O)Nc2cccc(CN)c2)c1 | 99.5 µM | > 100 µM
17 | CS(=O)(=O)Nc1cc(Cl)cc(C(=O)Nc2cccc(CN)c2)c1 | > 99.5 µM | > 100 µM
18 | NCc1cccc(NC(=O)c2cc(CO)cc(NC(=O)OCc3ccccc3)c2)c1 | > 99.5 µM | > 100 µM
19 | NCc1cc(Cl)cc(C(=O)Nc2cccc(C3CCNCC3)c2)c1 | > 99.5 µM | > 100 µM
20 | COc1ccc(-c2cccc([C@H](NC(=O)OCc3ccccc3)C(=O)Nc3cccc(CN)c3)c2)c(C#N)c1 | 56.5 µM | > 100 µM

Row | Structure (SMILES) | IC50 (Genome polyprotein [1]) | IC50 (Genome polyprotein [2])
21 | NCc1cccc(NC(=O)[C@H](NC(=O)OCc2ccccc2)c2cccc(-c3ccccn3)c2)c1 | > 99.5 µM | > 100 µM
22 | NCc1cccc(NC(=O)[C@H]2CCc3nnc(-c4ccc(F)cc4)n3C2)c1 | > 99.5 µM | > 100 µM
23 | CC(C)(CNCc1c[nH]c2ccccc12)c1cccnc1 | > 99.5 µM | > 100 µM
24 | NCc1cccc(NC(=O)c2cc(Cl)cc(NC(=O)NCc3ccccc3)c2)c1 | > 99.5 µM | > 100 µM
25 | CCCN(C)C(=O)Cn1ccnc(N2CC[C@H](CO)C2)c1=O | > 99.5 µM | > 100 µM
26 | O=C(Nc1cc(Cl)cc(C(=O)Nc2nc([C@H]3CCCN3)cc(=O)[nH]2)c1)OCc1ccccc1 | 86.9 µM | > 100 µM
27 | O=C(Nc1cc(Cl)cc(C(=O)Nc2cccc([C@H]3CCCN3)c2)c1)OCc1ccccc1 | 95.3 µM | > 100 µM
28 | NCc1cccc(NC(=O)[C@@H]2C[C@@H](O)CN2C(=O)C23CC4CC(CC(C4)C2)C3)c1 | > 99.5 µM | > 100 µM
29 | NCc1cccc(NC(=O)c2cc3c(F)cc(F)c(F)c3[nH]2)c1 | > 99.5 µM | > 100 µM
30 | NCc1ccc(NS(=O)(=O)c2ccc(Oc3ccccc3Cl)cc2)cc1Cl | > 99.5 µM | > 100 µM
31 | N[C@H](CO)c1cccc(NC(=O)c2cc(Cl)cc(NC(=O)OCc3ccccc3)c2)c1 | > 99.5 µM | > 100 µM
32 | Cc1c(F)cc(C(=O)Nc2cccc(CN)c2)c(F)c1NC(=O)OCc1ccccc1 | 69.8 µM | 100 µM
33 | NC1CN(c2ncccc2NS(=O)(=O)c2ccc(Oc3ccccc3Cl)cc2)C1 | > 99.5 µM | > 100 µM
34 | NC1(c2cccc(NC(=O)c3cc(Cl)cc(NC(=O)OCc4ccccc4)c3)c2)CC1 | > 99.5 µM | > 100 µM
35 | NC(=O)c1cccc(NC(=O)c2cc(Cl)cc(NC(=O)OCc3ccccc3)c2)c1 | > 99.5 µM | > 100 µM
36 | CCc1cc(C(=O)Nc2cccc(CN)c2)sc1-c1ccc(Cl)cc1 | 19.7 µM and 24.8 µM | > 100 µM
37 | C=C(C)c1cc(NC(=O)OCc2ccccc2)cc(C(=O)Nc2cccc(CN)c2)c1 | 50.4 µM | > 100 µM
38 | O=C(Cn1ccnc(N2CC[C@H](CO)C2)c1=O)N1CCOCC1 | > 99.5 µM | > 100 µM
39 | NC1(c2cc(C(F)(F)F)ccc2NS(=O)(=O)c2ccc(Oc3ccccc3Cl)cc2)CC1 | > 99.5 µM | > 100 µM
40 | NCc1cccc(NC(=O)[C@H](NC(=O)OCc2ccccc2)c2ccc(OCc3ccccc3)c(Br)c2)c1 | 30.4 µM | > 100 µM

Row | Structure (SMILES) | IC50 (Genome polyprotein [1]) | IC50 (Genome polyprotein [2])
41 | O=C(Nc1cc(Cl)cc(C(=O)Nc2cccc([C@H]3CNCCO3)c2)c1)OCc1ccccc1 | > 99.5 µM | > 100 µM
42 | NCCc1cccc(NC(=O)[C@H]2[C@H]3CCCCC[C@H]3[C@H]2NC(=O)OCc2ccccc2)c1 | 8.41 µM and 7.22 µM | 12.1 µM
43 | NCc1cccc(CCc2cc(Cl)cc(NC(=O)OCc3ccccc3)c2)c1 | 34.8 µM | > 100 µM
44 | NCCOc1ccnc(NS(=O)(=O)c2ccc(Oc3ccccc3Cl)cc2)c1 | > 99.5 µM | > 100 µM
45 | NCc1cccc(NC(=O)C[C@H](CC(N)=O)c2ccc(F)cc2)c1 | > 99.5 µM | > 100 µM
46 | N[C@H]1CCc2ccc(NC(=O)c3cc(Cl)cc(NC(=O)OCc4ccccc4)c3)cc21 | 91.2 µM | > 100 µM
47 | CS(=O)(=O)Nc1c(Cl)cc(Cl)cc1C(=O)Nc1cccc(CN)c1 | > 99.5 µM | > 100 µM
48 | Cc1cc(CN)cc(NS(=O)(=O)c2ccc(Oc3ccccc3Cl)cc2)c1 | > 99.5 µM | > 100 µM
49 | NCc1cccc(NC(=O)c2ccnc3[nH]c(C4CCOCC4)nc23)c1 | > 99.5 µM | > 100 µM
50 | COc1ccc(COc2ccc([C@H](NC(=O)OCc3ccccc3)C(=O)Nc3cccc(CN)c3)cc2)cn1 | > 99.5 µM | > 100 µM
51 | NC1(c2ccccc2NS(=O)(=O)c2ccc(Oc3ccccc3Cl)cc2)CC1 | > 99.5 µM | > 100 µM
52 | NCc1cccc(NC(=O)[C@H](NC(=O)OCc2ccccc2)c2ccc(OCC3CCC3)cc2)c1 | 48.8 µM | > 100 µM
53 | CC(C)c1nc2c(C(=O)Nc3cccc(CN)c3)cccc2[nH]1 | > 99.5 µM | > 100 µM
54 | Cc1ccc(-n2nc(C(=O)Nc3cccc(CN)c3)ccc2=O)cc1Cl | > 99.5 µM | > 100 µM
55 | COc1cc(C(=O)Nc2cccc(CN)c2)cc(NC(=O)OCc2ccccc2)c1Cl | > 99.5 µM | > 100 µM
56 | NC1(c2cccc(NS(=O)(=O)c3ccc(Oc4ccccc4Cl)cc3)c2)CCC1 | > 99.5 µM | > 100 µM
57 | NCc1cccnc1NS(=O)(=O)c1ccc(Oc2ccccc2Cl)cc1 | > 99.5 µM | > 100 µM
58 | N[C@H]1CCOc2ccc(NC(=O)c3cc(Cl)cc(NC(=O)OCc4ccccc4)c3)cc21 | > 99.5 µM | > 100 µM
59 | O=C(O)C[C@H](NC(=O)OCc1ccccc1)c1ccc(OCc2ccccc2)c(Br)c1 | 59.8 µM | 45.6 µM
